Patent publication US11684557B2, “Preservation compositions” (Conopco, Inc., priority 2018, dated 2023)

Experiments:
[1] = test system: Gram negative non-fermenting bacteria; assay: Liquid broth assays (MIC and checkerboard), modified ISO 20776-1:2006; assay type: cell-based; settings: individual chemical; tryptic soy broth, 30° C., 24 hours, OD600; MIC = <25% growth vs positive growth control
Source text: (§1) The differing behaviours of inhibitory antimicrobials in isolation and mixtures have been widely explored using the concept of the Fractional Concentration and Fractional Inhibitory Concentration (FIC). See for instance JRW Lambert and R Lambert, J. Appl. Microbiol 95, 734 (2003); T. Jadavji, C G Prober and R Cheung, Antimicrobial Agents and Chemotherapy 26, 91 (1984), and WO 2004/006876. These parameters can be defined as follows: FC(component a)=Concentration of component a tested in the mixture/MIC(component a tested as a single active) FIC(component a)=MIC(component a tested in the mixture)/MIC(component a tested as a single active)
(§2) These relationships can be expressed mathematically by summing the fractional MIC values for all the components present in the mixture to give the “fractional inhibitory index”: ΣFIC=FIC(component 1)+FIC(component 2)
(§3) Liquid broth assays (MIC and checkerboard) were conducted to identify the minimum concentration(s) of individual and binary combinations of preservation chemicals. A modified methodology to ISO 20776-1:2006 was utilised for the screening as follows. Stock solutions of preservation chemicals and tryptic soy broth were inoculated with 1-5×10^6 microorganisms and incubated at 30° C. for 24 hours, after which optical densities at OD600 nm were measured. Microorganisms used for assessed included Gram negative non-fermenting bacteria: Pseudomonas aeruginosa, Pseudomonas putida & Burkholderia cepacia and Gram negative fermenting bacteria: Enterobacter gergoviae & Klebsiella species. […] Preservation chemicals were screened at a concentration range of 0.0156-2%.

[2] = test system: Gram negative fermenting bacteria; assay: as above; assay type: cell-based, Enterobacter gergoviae & Klebsiella species; settings: individual chemical; tryptic soy broth, 30° C., 24 hours, OD600; MIC = <25% growth vs positive growth control
Source text: as §1, §2, §3

Structure (SMILES) | MIC Gram negative non-fermenting bacteria [1] [wt %] | MIC Gram negative fermenting bacteria [2] [wt %]
OCc1ccccc1 [Benzyl alcohol, reference compound] | 0.125 | 0.5
C=C(CC(=O)O)C(=O)O [Itaconic acid] | 0.5 | 0.5
O=C([O-])c1ccccc1.[Na+] [Sodium benzoate] | 1 | 1
